“And” between values parts separate entries of the source, which are not always exact repeats. Equal values may be shown once. Records with an inconclusive call do not appear.
Tested on: C3AKF1 mice, osteogenic sarcoma HE10734 s.c., tumor weight T/C
Assay: NCI In Vivo Anticancer Drug Screen. Data for tumor model Osteogenic Sarcoma HE 10734 (subcutaneous) in C3AKF1 (CHKRF1) mice
Settings: endpoint: mean tumor weight, schedule: Q01DX010 (ip), higher = larger tumour
Method: The antitumor activity of compounds was measured in mice bearing transplantable tumors. Survival or tumor size were measured and the results are expressed as the measurement made in the treated group (T) divided by the measurement made in the vehicle treated control group (C). The tumor model used in this assay is Osteogenic Sarcoma HE 10734 (subcutaneous) in C3AKF1 (CHKRF1) mice

[1] = dose: 25.0 mg/kg/injection, vehicle: carboxymethylcellulose (CMC)
[2] = dose: 50.0 mg/kg/injection, vehicle: carboxymethylcellulose (CMC)
[3] = dose: 50.0 mg/kg/injection, vehicle: saline
[4] = dose: 125.0 mg/kg/injection, vehicle: saline
[5] = dose: 250.0 mg/kg/injection, vehicle: saline
[6] = dose: 500.0 mg/kg/injection, vehicle: saline
[7] = dose: 20.0 mg/kg/injection, vehicle: saline
[8] = dose: 40.0 mg/kg/injection, vehicle: saline
[9] = dose: 80.0 mg/kg/injection, vehicle: saline
[10] = dose: 62.0 mg/kg/injection, vehicle: saline
[11] = dose: 100.0 mg/kg/injection, vehicle: saline
[12] = dose: 200.0 mg/kg/injection, vehicle: saline
[13] = dose: 25.0 mg/kg/injection, vehicle: saline

`Nc1nc(SCc2ccccc2Cl)c2[nH]cnc2n1` was tested, and the T/C (dose: 6.0 mg/kg/injection, vehicle: carboxymethylcellulose (CMC)) was 70 % of control, the T/C (dose: 12.0 mg/kg/injection, vehicle: carboxymethylcellulose (CMC)) was 52 % of control and the T/C [1] was 54 % of control. For the same compound, the T/C [2] was 43 % of control, the T/C [3] was 32 % of control and 39 % of control and the T/C (dose: 70.0 mg/kg/injection, vehicle: saline) was 41 % of control. For the same compound, the T/C (dose: 110.0 mg/kg/injection, vehicle: saline) was 16 % of control and 33 % of control and the T/C (dose: 165.0 mg/kg/injection, vehicle: saline) was 13 % of control.

In the case of `Nc1nc(SCc2ccccc2)c2ncn(C3CCCC3)c2n1`, the T/C [4] is reported as 80 % of control, the T/C [5] is reported as 115 % of control and the T/C [6] is reported as 83 % of control. For the same compound, the T/C (dose: 1000.0 mg/kg/injection, vehicle: saline) was 63 % of control.

In the case of `CS(=O)(=O)OC[C@@H](O)[C@@H](O)COS(C)(=O)=O`, the T/C (dose: 62.5 mg/kg/injection, vehicle: carboxymethylcellulose (CMC)) is reported as 88 % of control, the T/C (dose: 125.0 mg/kg/injection, vehicle: carboxymethylcellulose (CMC)) is reported as 53 % of control and 74 % of control and the T/C (dose: 500.0 mg/kg/injection, vehicle: carboxymethylcellulose (CMC)) is reported as 92 % of control and 109 % of control.

With `O=C1N(Cl)C(=O)C(c2ccc(Cl)cc2)(c2ccc(Cl)cc2)N1Cl` the T/C (dose: 10.0 mg/kg/injection, vehicle: saline) was 70 % of control, the T/C [7] was 58 % of control and the T/C [8] was 90 % of control. For the same compound, the T/C [9] was 67 % of control and 77 % of control, the T/C (dose: 120.0 mg/kg/injection, vehicle: saline) was 48 % of control and the T/C (dose: 180.0 mg/kg/injection, vehicle: saline) was 55 % of control. The T/C (dose: 270.0 mg/kg/injection, vehicle: saline) was 53 % of control.

For `O=c1n(CCCl)c(=O)n(CCCl)c(=O)n1CCCl`, the T/C (dose: 31.0 mg/kg/injection, vehicle: saline) was 81 % of control, the T/C [10] was 83 % of control and the T/C [4] was 75 % of control. For the same compound, the T/C (dose: 370.0 mg/kg/injection, vehicle: saline) was 116 % of control.

For `CCCC(Sc1nc(N)nc2nc[nH]c12)C(=O)O` (centres undefined), the T/C [3] was 80 % of control, the T/C [11] was 53 % of control and the T/C [12] was 40 % of control. For the same compound, the T/C (dose: 400.0 mg/kg/injection, vehicle: saline) was 17 % of control.

With `CN(C)Nc1ncnc2nc[nH]c12` the T/C [7] was 84 % of control, the T/C [8] was 72 % of control and the T/C [9] was 38 % of control.

For `O=P(c1ccccc1)(N1CC1)N1CC1`, the T/C (dose: 3.13 mg/kg/injection, vehicle: saline) was 106 % of control, the T/C (dose: 6.25 mg/kg/injection, vehicle: saline) was 93 % of control and the T/C (dose: 12.5 mg/kg/injection, vehicle: saline) was 105 % of control. For the same compound, the T/C [13] was 68 % of control and 71 % of control.

`CCCCn1cnc2c(SC)nc(N)nc21` was tested, and the T/C (dose: 30.0 mg/kg/injection, vehicle: carboxymethylcellulose (CMC)) was 69 % of control and the T/C (dose: 115.0 mg/kg/injection, vehicle: carboxymethylcellulose (CMC)) was 71 % of control.

For `CCCCCCCCCCCCCS`, the T/C [13] was 76 % of control, the T/C [3] was 87 % of control and the T/C [11] was 82 % of control. For the same compound, the T/C [12] was 89 % of control.

For `Fc1ccc(CSc2ncnc3c2ncn3C2CCCCO2)cc1` (centres undefined), the T/C [10] was 81 % of control, the T/C [4] was 71 % of control and the T/C [5] was 93 % of control. For the same compound, the T/C [6] was 28 % of control.

In the case of `S=C(N=Nc1ccccc1)NNc1ccccc1`, the T/C (dose: 45.0 mg/kg/injection, vehicle: carboxymethylcellulose (CMC)) is reported as 95 % of control and the T/C (dose: 65.0 mg/kg/injection, vehicle: carboxymethylcellulose (CMC)) is reported as 49 % of control.

For `CCN(CC)CCN1C(=O)c2cccc3cccc(c23)C1=O`, the T/C [1] was 86 % of control, the T/C [2] was 78 % of control and the T/C (dose: 100.0 mg/kg/injection, vehicle: carboxymethylcellulose (CMC)) was 85 % of control.

For `CC[C@H]1CN2CCc3cc(OC)c(OC)cc3[C@@H]2C[C@@H]1C[C@H]1NCCc2cc(OC)c(OC)cc21`, the T/C (dose: 1.0 mg/kg/injection, vehicle: saline) was 82 % of control and the T/C (dose: 2.0 mg/kg/injection, vehicle: saline) was 82 % of control.

From PubChem BioAssay AID310 (DTP/NCI, 2004)
